Legend:
cyclooxygenase-2 (COX-2) = biological target: T1, cyclooxygenase-2 (COX-2) (Homo sapiens, UniProt P35354); conditions: cited from earlier work
T1 sequence (P35354 18-604): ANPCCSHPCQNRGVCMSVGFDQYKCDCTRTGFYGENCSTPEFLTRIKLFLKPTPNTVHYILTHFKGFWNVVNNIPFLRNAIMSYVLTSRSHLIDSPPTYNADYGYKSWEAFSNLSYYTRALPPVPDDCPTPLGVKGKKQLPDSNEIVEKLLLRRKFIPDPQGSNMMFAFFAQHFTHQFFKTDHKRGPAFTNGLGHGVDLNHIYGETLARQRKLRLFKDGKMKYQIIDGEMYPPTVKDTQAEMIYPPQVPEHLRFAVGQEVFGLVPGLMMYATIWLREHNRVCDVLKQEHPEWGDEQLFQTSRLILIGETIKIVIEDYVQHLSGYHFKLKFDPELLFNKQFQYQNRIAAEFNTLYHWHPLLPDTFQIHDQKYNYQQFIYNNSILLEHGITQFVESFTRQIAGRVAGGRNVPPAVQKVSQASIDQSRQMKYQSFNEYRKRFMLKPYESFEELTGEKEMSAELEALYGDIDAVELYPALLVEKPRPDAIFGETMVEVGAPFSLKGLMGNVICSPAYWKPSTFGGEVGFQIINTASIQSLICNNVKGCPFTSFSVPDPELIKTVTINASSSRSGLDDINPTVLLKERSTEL

[1] = Dissolution testing (in vitro prediction of bioavailability); format: physicochemical
From the text: Dissolution testing is a well established technique for obtaining a correlation between in vitro and in vivo data in relation to compound bioavailability. […] As a result attempts were made to improve the bioavailability of compound (I). WO01/41760 (Pharmacia Corporation) discloses that the bioavailability of selective COX-2 inhibitory drugs of low water solubility may be enhanced by reducing the drug particle size, such that a substantial proportion are smaller than 1 μm.

dissolution, indicated bioavailability ([1]; co-formulation with HPMC-AS in an amorphous dispersion): enhanced
dissolution, predicted bioavailability ([1]; compound (I) in micronised form, preliminary dissolution experiments): poorly bioavailable
dissolution profile ([1]; pharmaceutical composition with compound (I) in nanoparticulate form): poor dissolution profile
Compound: CCOc1ccc(-c2nn3ncccc3c2-c2ccc(S(C)(=O)=O)cc2)cc1 [compound (I), 2-(4-ethoxy-phenyl)-3-(4-methanesulfonyl-phenyl)-pyrazolo[1,5-b]pyridazine]
inhibition of cyclooxygenase-2 (COX-2) (cyclooxygenase-2 (COX-2)): potent and selective inhibitor
